{"source": "paper PMC8081377", "about": "(Mutagenesis, 2021)", "key": {"[1]": {"system": "reconstructed human skin (RS) tissues", "conditions": "cited from earlier work; for detection of DNA damage, RS Comet assay versus RSMN assay: direct treatment with genotoxic metabolites of 2-AAF"}, "RS tissues": {"system": "RS tissues", "conditions": "cited from earlier work; for RSMN result with the 72-h protocol: contract research lab"}, "[2]": {"system": "EpiDerm™ EPI-200-MNA skin tissues"}, "mouse lymphoma cells": {"system": "mouse lymphoma cells", "conditions": "cited from earlier work"}, "[3]": {"conditions": "cited from earlier work"}, "[4]": {"system": "EpiDerm™ EPI-200-MNA skin tissues", "conditions": "for maximum dose tested without exceeding the cytotoxicity thresholds: lack of excessive cytotoxicity"}, "[5]": {"conditions": "topically-applied; cited from earlier work"}, "multiple tissues": {"system": "multiple tissues", "conditions": "mice, single i.p. injection; cited from earlier work"}, "stomach, liver": {"system": "stomach, liver", "conditions": "rats, daily treatment for 3 days, initial evaluation; cited from earlier work"}, "[6]": {"system": "CHO, CHL, V79, HuLy cells", "conditions": "cited from earlier work"}, "[7]": {"system": "V79, CHO, CHL, HuLy, TK6, HepG2, L5178Y cells", "conditions": "cited from earlier work"}, "[8]": {"conditions": "three treatments, vs solvent control"}, "[9]": {"conditions": "two treatments, vs solvent control"}, "[10]": {"conditions": "multiple treatments of RS tissues"}, "[11]": {"conditions": "% VCC or % BN, lab(s) as stated in the text"}}, "note": "Structures can show the parent of a compound that is named as a salt. Where two headings read alike, the source gives them in different places.", "data": [{"smiles": "CC(=O)N(O)c1ccc2c(c1)Cc1ccccc1-2", "note": "[N-hydroxy-2-acetylaminofluorene]", "values": [{"measurement": "detection of DNA damage, RS Comet assay versus RSMN assay", "setting": "[1]", "result": "more efficiently detected in the RS Comet assay than in the RSMN assay"}]}, {"smiles": "c1ccc2c(c1)cc1ccc3cccc4ccc2c1c34", "note": "[B[a]P]", "values": [{"measurement": "RSMN result with the 72-h protocol", "setting": "RS tissues", "result": "positive results"}]}, {"smiles": "C1=Cc2cc3cccc4ccc5ccc1c2c5c43", "note": "[Cyclopenta[c,d]pyrene (CPPE), Cyclopenta[c,d]pyrene]", "values": [{"measurement": "classification in the RSMN assay by Lab B", "setting": "[2]; overall call", "result": "positive"}, {"measurement": "% MN-BN response in individual experiment(s), Lab B, 72-h protocol", "setting": "[2]; [8]", "result": "significant increase"}, {"measurement": "% MN-BN response in individual experiment(s), Lab C, 48-h protocol", "setting": "[2]; [9]", "result": "negative results"}, {"measurement": "mouse lymphoma assay", "setting": "mouse lymphoma cells", "result": "positive"}, {"measurement": "skin tumours", "setting": "[3]; mice, dermal application, ref Supplementary Table S1", "result": "induce skin tumours"}, {"measurement": "maximum dose tested without exceeding the cytotoxicity thresholds", "setting": "[4]; 48-h protocol", "result": 1600, "unit": "µg/cm^2"}]}, {"smiles": "O=P1(N(CCCl)CCCl)NCCCO1", "note": "(centres unmarked) [cyclophosphamide]", "values": [{"measurement": "RSMN result with the 72-h protocol", "setting": "RS tissues", "result": "positive results"}]}, {"smiles": "CC(=O)Nc1ccc2c(c1)Cc1ccccc1-2", "note": "[2-Acetylaminofluorene (2-AAF), 2-Acetylaminofluorene]", "values": [{"measurement": "response in the RSMN assay", "setting": "RS tissues; [10]", "result": "not in the RSMN assay"}, {"measurement": "metabolism in human skin explants", "setting": "[5]", "result": "evidence for metabolism"}, {"measurement": "classification in the RSMN assay by Lab B", "setting": "[2]; overall call", "result": "negative"}, {"measurement": "classification in the RSMN assay by Lab C", "setting": "[2]; overall call", "result": "negative"}, {"measurement": "classification in the RSMN assay by Lab D", "setting": "[2]; overall call", "result": "negative"}, {"measurement": "% MN-BN response in individual experiment(s), Lab B, 72-h protocol", "setting": "[2]; [8]", "result": "without a significant response"}, {"measurement": "% MN-BN response in individual experiment(s), Lab C, 72-h protocol", "setting": "[2]; [8]", "result": "without a significant response"}, {"measurement": "% MN-BN response in individual experiment(s), Lab B, 48-h protocol", "setting": "[2]; [9]", "result": "without a significant response"}, {"measurement": "% MN-BN response in individual experiment(s), Lab C, 48-h protocol", "setting": "[2]; [9]", "result": "without a significant response"}, {"measurement": "% MN-BN response in individual experiment(s), Lab D, 48-h protocol", "setting": "[2]; [9]", "result": "no significant increase"}, {"measurement": "DNA damage in the RS Comet assay", "setting": "[1]", "result": "weak, but statistically significant and reproducible increase in DNA damage"}, {"measurement": "response in the RS Comet assay", "setting": "[1]; [10]", "result": "significant response"}]}, {"smiles": "[Cl][Cd][Cl]", "note": "[Cadmium chloride (CdCl2), Cadmium chloride]", "values": [{"measurement": "in vivo comet assay result, multiple tissues", "setting": "multiple tissues", "result": "negative results"}, {"measurement": "classification in the RSMN assay by Lab A", "setting": "[2]; overall call", "result": "positive"}, {"measurement": "classification in the RSMN assay by Lab B", "setting": "[2]; overall call", "result": "negative"}, {"measurement": "classification in the RSMN assay by Lab C", "setting": "[2]; overall call", "result": "positive"}, {"measurement": "% MN-BN response in individual experiment(s), Lab A, 72-h protocol", "setting": "[2]; [8]", "result": "clear increase"}, {"measurement": "% MN-BN response in individual experiment(s), Lab B, 72-h protocol", "setting": "[2]; [8]", "result": "negative results"}, {"measurement": "% MN-BN response in individual experiment(s), Lab A, 48-h protocol", "setting": "[2]; [9]", "result": "without any significant increase"}, {"measurement": "% MN-BN response in individual experiment(s), Lab B, 48-h protocol", "setting": "[2]; [9]", "result": "No detectable increase"}, {"measurement": "% MN-BN response in individual experiment(s), Lab C, 48-h protocol", "setting": "[2]; [9]", "result": "negative"}, {"measurement": "in vivo comet assay result, stomach", "setting": "stomach, liver", "result": "positive"}, {"measurement": "top/maximum dose tested, limited by excessive or strong cytotoxicity", "setting": "[4]; [11]", "result": 160, "unit": "µg/cm^2"}, {"measurement": "doses that caused 50% cytotoxicity", "setting": "[4]; Lab A, 48-h protocol, Phase 2c", "result": "100–160 µg/cm^2"}]}, {"smiles": "Cn1c(N)nc2c3cccnc3ccc21", "note": "[2-Amino-3-methylimidazo[4,5-f]quinolone]", "values": [{"measurement": "% MN-BN response in individual experiment(s), Lab A, 72-h protocol", "setting": "[2]; [8]", "result": "Significant increases"}, {"measurement": "% MN-BN response in individual experiment(s), Lab A, 48-h protocol", "setting": "[2]; [9]", "result": "no increase"}, {"measurement": "detection in the RS Comet assay", "setting": "[1]; after multiple treatments", "result": "not detected"}, {"measurement": "IARC class", "setting": "[3]; carcinogen classification", "result": 2, "unit": "A"}, {"measurement": "% BN (excessive cytotoxicity)", "setting": "[4]; at ≥150 µg/cm^2, 48-h protocol, Lab A", "result": "< 20", "unit": "% BN"}]}, {"smiles": "Cc1c2ccccc2c(C)c2c1ccc1ccccc12", "note": "[7,12-Dimethylbenz[a]thracene (DMBA), 7,12-Dimethylbenz[a]anthracene]", "values": [{"measurement": "result in a previous RSMN study", "setting": "RS tissues; % VCC not used as cytotoxicity measure, higher doses tested", "result": "positive"}, {"measurement": "% MN-BN response in individual experiment(s), Lab A, 48-h protocol", "setting": "[2]", "result": "did not increase"}, {"measurement": "% MN-BN response in individual experiment(s), Lab A, 72-h protocol", "setting": "[2]", "result": "did not induce an increase"}, {"measurement": "classification in the RSMN assay by Lab A", "setting": "[2]", "result": "negative"}, {"measurement": "top dose, limited by precipitation on the surface of the skin tissues", "setting": "[4]; lab(s) as stated in the text", "result": 240, "unit": "µg/cm^2"}]}, {"smiles": "C=CCc1ccc(O)c(OC)c1", "note": "[Eugenol]", "values": [{"measurement": "in vitro chromosome aberration tests", "setting": "[6]; ref Supplementary Table S1", "result": "positive findings"}, {"measurement": "classification in the RSMN assay by Lab A", "setting": "[2]; overall call", "result": "positive"}, {"measurement": "% MN-BN response in individual experiment(s), Lab A, 72-h protocol", "setting": "[2]; [8]", "result": "significant increase in the % MN-BN was seen at the two highest doses"}, {"measurement": "% MN-BN response in individual experiment(s), Lab A, 48-h protocol", "setting": "[2]; [9]", "result": "significant increase in % MN-BN only at one mid-dose"}, {"measurement": "in vitro MN tests", "setting": "[7]; ref Supplementary Table S1", "result": "positive findings"}, {"measurement": "carcinogenicity tests", "setting": "[3]; ref Supplementary Table S1", "result": "negative"}, {"measurement": "top/maximum dose tested, limited by excessive or strong cytotoxicity", "setting": "[4]; [11]", "result": "80–100 µg/cm^2"}]}, {"smiles": "Nc1ccn([C@@H]2O[C@H](CO)[C@@H](O)[C@@H]2O)c(=O)n1", "note": "[Cytosine arabinoside]", "values": [{"measurement": "in vitro chromosome aberration tests", "setting": "[6]", "result": "positive"}, {"measurement": "classification in the RSMN assay by Lab B", "setting": "[2]; overall call", "result": "negative"}, {"measurement": "% MN-BN response in individual experiment(s), Lab B, 72-h protocol", "setting": "[2]; [8]", "result": "Negative results"}, {"measurement": "% MN-BN response in individual experiment(s), Lab B, 48-h protocol", "setting": "[2]; [9]", "result": "did not show a significant increase"}, {"measurement": "in vitro MN tests", "setting": "[7]", "result": "positive"}, {"measurement": "top/maximum dose tested, limited by excessive or strong cytotoxicity", "setting": "[4]; [11]", "result": 48, "unit": "µg/cm^2"}]}, {"smiles": "ONc1ccc2c(c1)Cc1ccccc1-2", "note": "[N-hydroxy-2-aminofluorene]", "values": [{"measurement": "detection of DNA damage, RS Comet assay versus RSMN assay", "setting": "[1]", "result": "more efficiently detected in the RS Comet assay than in the RSMN assay"}]}, {"smiles": "CCCOC(=O)c1cc(O)c(O)c(O)c1", "note": "[Propyl gallate]", "values": [{"measurement": "% MN-BN response in individual experiment(s), Lab B, 48-h protocol", "setting": "[2]", "result": "did not significantly increase"}, {"measurement": "classification in the RSMN assay by Lab B", "setting": "[2]", "result": "negative"}, {"measurement": "top/maximum dose tested, limited by excessive or strong cytotoxicity", "setting": "[4]; [11]", "result": 48, "unit": "µg/cm^2"}]}, {"smiles": "CC1(C)S[C@@H]2[C@H](NC(=O)[C@H](N)c3ccccc3)C(=O)N2[C@H]1C(=O)O", "note": "[Ampicillin sodium salt]", "values": [{"measurement": "classification in the RSMN assay by Lab A", "setting": "[2]; overall call", "result": "negative"}, {"measurement": "% MN-BN response in individual experiment(s), Lab A, 48-h protocol", "setting": "[2]; [9]", "result": "no significant increases"}, {"measurement": "maximum dose tested without exceeding the cytotoxicity thresholds", "setting": "[4]; 48-h protocol", "result": 1600, "unit": "µg/cm^2"}]}, {"smiles": "CCOS(C)(=O)=O", "note": "[Ethyl methanesulfonate (EMS), Ethyl methanesulfonate]", "values": [{"measurement": "classification in the RSMN assay by Lab A", "setting": "[2]; overall call", "result": "positive"}, {"measurement": "classification in the RSMN assay by Lab C", "setting": "[2]; overall call", "result": "positive"}, {"measurement": "% MN-BN response in individual experiment(s), Lab A, 72-h protocol", "setting": "[2]; [8]", "result": "significant increase in the % MN-BN at multiple doses"}, {"measurement": "% MN-BN response in individual experiment(s), Lab C, 48-h protocol", "setting": "[2]; [9]", "result": "clear and dose-dependent increase"}, {"measurement": "top/maximum dose tested, limited by excessive or strong cytotoxicity", "setting": "[4]; [11]", "result": 360, "unit": "µg/cm^2"}]}, {"smiles": "CCc1cc(C(N)=S)ccn1", "note": "[Ethionamide]", "values": [{"measurement": "% MN-BN response in individual experiment(s), Lab A, 48-h protocol", "setting": "[2]", "result": "negative"}, {"measurement": "% MN-BN response in individual experiment(s), Lab B, 48-h protocol", "setting": "[2]", "result": "negative"}, {"measurement": "% MN-BN response in individual experiment(s), Lab B, 72-h protocol", "setting": "[2]", "result": "negative"}, {"measurement": "% MN-BN response in individual experiment(s), Lab C, 48-h protocol", "setting": "[2]", "result": "negative"}, {"measurement": "classification in the RSMN assay by Lab A", "setting": "[2]", "result": "negative"}, {"measurement": "classification in the RSMN assay by Lab B", "setting": "[2]", "result": "negative"}, {"measurement": "classification in the RSMN assay by Lab C", "setting": "[2]", "result": "negative"}, {"measurement": "% VCC or BN (cytotoxicity thresholds exceeded)", "setting": "[4]; human", "result": "< 40 % VCC or BN"}, {"measurement": "top/maximum dose tested, limited by excessive or strong cytotoxicity", "setting": "[4]; human", "result": "30–160 µg/cm^2"}]}]}
